Assay results published in PubChem BioAssay (NCI).
Values joined by “and” are separate entries in the source; they are usually repeats but may differ in a detail not shown here. Equal entries are not always repeated.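 Method: 48-hour compound exposure of cells in 96-well plates, five concentrations, linear interpolation of endpoints. Here, GI50 denotes the concentration required for 50% inhibition of growth. At the TGI there is no net growth.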

Assays:
Experiment in all cases: NCI-60 cell line screen, 48 h
[1] = test system: ACHN renal
[2] = test system: CAKI-1 renal
[3] = test system: CCRF-CEM leukemia
[4] = test system: K-562 leukemia
[5] = test system: M14 melanoma
[6] = test system: NCI/ADR-RES ovarian
[7] = test system: OVCAR-4 ovarian
[8] = test system: SF-539 CNS
[9] = test system: SK-MEL-2 melanoma
[10] = test system: SW-620 colon

Compound	GI50 [1]	TGI [1]	GI50 [2]	TGI [2]	GI50 [3]	TGI [3]	GI50 [4]	TGI [4]	GI50 [5]	TGI [5]	GI50 [6]	TGI [6]	GI50 [7]	TGI [7]	GI50 [8]	TGI [8]	GI50 [9]	TGI [9]	GI50 [10]	TGI [10]
CN1CCn2c(c(Sc3ccc(C(=O)NO)cc3)c3ccccc32)C1=O	2.63 µM	8.72 µM	3.86 µM	11 µM	1.23 µM	> 27.8 µM	3.77 µM	> 100 µM	1.77 µM	3.99 µM	8.82 µM	> 87.1 µM	2.14 µM	9.99 µM	1.56 µM	3.48 µM	2.01 µM	4.1 µM	1.86 µM	5.14 µM
Cc1nn(-c2nc3ccccc3[nH]2)c2c1C(c1ccc3c(c1)OCO3)CC(=O)N2 (configuration not stated)	4.07 µM	> 100 µM	2.55 µM	7.04 µM	1.94 µM	> 24.7 µM	3.58 µM	> 100 µM	2.31 µM	5.98 µM	4.43 µM	> 100 µM	3.51 µM	> 87.4 µM	2.16 µM	4.82 µM	2.82 µM	6.96 µM	2.86 µM	9.63 µM
CNc1nc(N(C)C)nc(N(C)C)n1	> 100 µM and 1900 µM	> 100 µM and 3610 µM	> 100 µM and 926 µM	> 100 µM and 2620 µM	> 100 µM and 4060 µM	> 100 µM and 6600 µM	> 100 µM and 831 µM	> 100 µM and 3230 µM	–	2600 µM	–	2650 µM	> 100 µM and 431 µM	> 100 µM and 1260 µM	> 100 µM and 1350 µM	> 100 µM and 3580 µM	> 100 µM and 2150 µM	> 100 µM and 4820 µM	> 100 µM and 1870 µM	> 100 µM and 4030 µM
COc1cc(-c2oc3c(OC)c(O)c(OC)c(O)c3c(=O)c2OC)ccc1O	–	> 100 µM	–	90.1 µM	–	> 100 µM	–	> 100 µM	–	96 µM	–	> 100 µM	–	> 100 µM	–	> 100 µM	–	74.9 µM	–	> 100 µM
C=CC(=O)Nc1cccc(C)c1Nc1ncc2cc(-c3c(Cl)c(OC)cc(OC)c3Cl)ccc2n1	7.01 µM	> 100 µM	8.39 µM	> 100 µM	4.44 µM	> 100 µM	3.89 µM	> 100 µM	7.44 µM	57.2 µM	4.07 µM	66.5 µM	3.47 µM	> 100 µM	1.38 µM	10.8 µM	4.26 µM	28.7 µM	3.9 µM	39.5 µM
COCCNC(=O)c1ccc(-c2nc3ccc4[nH]ncc4c3c3c2CCCC3)cc1	1.14 µM	57.7 µM	0.689 µM	7.29 µM	2.44 µM	16.6 µM	3.86 µM	> 100 µM	1.39 µM	> 100 µM	4.29 µM	> 100 µM	4.59 µM	72.9 µM	1.71 µM	8.01 µM	2.16 µM	7.97 µM	1.83 µM	13.9 µM
N=C(N)c1ccc(-c2ccc(-c3cccs3)s2)nc1	1.76 µM	3.33 µM	2.13 µM	6.83 µM	1.78 µM	4.19 µM	1.61 µM	3.81 µM	1.86 µM	3.63 µM	3.11 µM	14.5 µM	0.944 µM	3.32 µM	1.57 µM	3.08 µM	2.19 µM	4.2 µM	1.85 µM	3.93 µM
O=C(CCCCCCC(=O)Nc1ccc2c(c1)/C(=C/c1ccc[nH]1)C(=O)N2)NO	0.904 µM	4.67 µM	2.33 µM	> 100 µM	0.0923 µM	> 100 µM	0.333 µM	> 100 µM	0.427 µM	10 µM	3.86 µM	> 100 µM	1.27 µM	52 µM	0.603 µM	16 µM	0.851 µM	7.13 µM	0.271 µM	> 21.9 µM
N#Cc1nc2cc(F)c(F)cc2nc1-c1ccc(Cl)cc1	10.4 µM	43.8 µM	15.1 µM	38.5 µM	0.181 µM	3.12 µM	2.99 µM	> 27.8 µM	7.93 µM	23.8 µM	10.3 µM	> 81.1 µM	> 62 µM	> 100 µM	> 60.6 µM	> 100 µM	8.41 µM	25.5 µM	16 µM	50.1 µM
COC(=O)[C@@]1(O)C[C@H]2O[C@]1(C)n1c3ccccc3c3c4c(c5c6ccccc6n2c5c31)C(=O)NC4	0.0368 µM	3.07 µM	0.0149 µM	0.217 µM	0.321 µM	1.64 µM	0.0397 µM	1.28 µM	0.0355 µM	1.15 µM	0.415 µM	3.56 µM	1.24 µM	2.76 µM	0.356 µM	1.42 µM	0.0476 µM	1.61 µM	0.147 µM	3.11 µM
N#CC1=C(N)Oc2c(sc3c(F)cccc23)C1c1ccc(F)cc1 (configuration not stated)	0.752 µM	16.1 µM	0.508 µM	15.9 µM	0.47 µM	25.3 µM	0.354 µM	18.4 µM	0.41 µM	6.41 µM	0.375 µM	4.36 µM	2.03 µM	16.6 µM	0.447 µM	2.67 µM	0.982 µM	18.6 µM	0.531 µM	16.3 µM
OC(CNc1ccnc2cc(Cl)ccc12)CNC1CCCCC1 (configuration not stated)	6.06 µM	19.4 µM	1.84 µM	4.05 µM	7.29 µM	42.4 µM	2.07 µM	5.17 µM	1.65 µM	3.11 µM	18 µM	53.9 µM	3.6 µM	23.8 µM	1.76 µM	3.38 µM	2.28 µM	4.86 µM	4.79 µM	18.3 µM
Clc1ccc2c(c1)-c1ccccc1C1=NCCN12	1.12 µM	9.3 µM	1.83 µM	5.8 µM	1.7 µM	4.08 µM	2.2 µM	7.61 µM	1.56 µM	3.07 µM	1.6 µM	4.8 µM	1.99 µM	7.35 µM	3 µM	10.4 µM	2.02 µM	3.89 µM	1.11 µM	6.53 µM
CN(C)CCNC(=O)c1cc2c3ccccc3[nH]c2c2ncccc12	4.24 µM	28 µM	0.515 µM	12.3 µM	3.46 µM	15.8 µM	9.05 µM	26.2 µM	12.1 µM	27.2 µM	22.5 µM	> 100 µM	8.48 µM	47.7 µM	8.87 µM	21.1 µM	9.15 µM	72.5 µM	4.24 µM	24.9 µM
CCCCCCCCCCCC[n+]1ccc(C(N)=O)cc1	6.06 µM	22 µM	10.7 µM	26.2 µM	3.61 µM	> 100 µM	2.87 µM	> 100 µM	2.58 µM	9.7 µM	> 100 µM	> 100 µM	4.73 µM	17.5 µM	2.36 µM	6.31 µM	3.51 µM	9.13 µM	3.16 µM	14.4 µM
COc1cccc2c(=O)c3c(sc12)c(NCCN(C)C)nc1ccccc13	1 µM	2.22 µM	1.36 µM	3.12 µM	1.34 µM	2.97 µM	1.02 µM	2.8 µM	1.56 µM	2.94 µM	1.31 µM	3.03 µM	1.57 µM	3.68 µM	1.61 µM	3.01 µM	1.84 µM	3.82 µM	0.76 µM	2.3 µM
S=C(Nc1ccccc1)N(Cc1ccccc1)c1ccccc1	–	> 100 µM	–	90.3 µM	–	> 100 µM	–	> 100 µM	–	> 100 µM	–	> 100 µM	–	93.6 µM	–	66 µM	–	41.2 µM	–	> 100 µM
Cc1ccc(S(=O)(=O)Nc2nc3ccccc3nc2Nc2ccc3nsnc3c2)cc1	4.01 µM and 3.75 µM	> 100 µM	3.36 µM and 2.33 µM	> 100 µM	3.32 µM and 2.93 µM	> 100 µM	3.7 µM and 2.82 µM	> 100 µM	4.05 µM and 4.35 µM	> 100 µM	3.2 µM and 3.52 µM	> 100 µM	3.13 µM	> 100 µM	4.9 µM and 5.13 µM	61.3 µM and > 100 µM	2.87 µM and 3.22 µM	–	7.95 µM and 5.22 µM	> 100 µM
NCCCCN(Cc1nc2ccccc2[nH]1)[C@H]1CCCc2cccnc21	26.3 µM	> 100 µM	16.1 µM	> 64.4 µM	7.06 µM	56.3 µM	12.6 µM	43.3 µM	13.9 µM	30.2 µM	26.8 µM	> 100 µM	10.6 µM	> 82.7 µM	13.3 µM	27.6 µM	16.7 µM	45.1 µM	12.6 µM	> 100 µM
